Data: ChEMBL document CHEMBL4420081, “Novel benzylamino substituted quinazolines and derivatives as sos1 inhibitors” (2018)

Tests used:
Assay type in all cases: functional
Conditions in all cases: PC-9, 336 h, read-out: GI
PC-9 [1] = assay: Growth inhibition of human PC9 cells grown under 3D anchorage-independent soft-agar conditions at 0.37 nM incubated for 14 days by alamar blue dye based assay relative to control
PC-9 [2] = assay: Growth inhibition of human PC9 cells grown under 3D anchorage-independent soft-agar conditions at 10 nM incubated for 14 days by alamar blue dye based assay relative to control
PC-9 [3] = assay: Growth inhibition of human PC9 cells grown under 3D anchorage-independent soft-agar conditions at 3.33 nM incubated for 14 days by alamar blue dye based assay relative to control
PC-9 [4] = assay: Growth inhibition of human PC9 cells grown under 3D anchorage-independent soft-agar conditions at 0.123 nM incubated for 14 days by alamar blue dye based assay relative to control
PC-9 [5] = assay: Growth inhibition of human PC9 cells grown under 3D anchorage-independent soft-agar conditions at 1.11 nM incubated for 14 days by alamar blue dye based assay relative to control

## C=CC(=O)Nc1cccc(Oc2nc(Nc3ccc(N4CCN(C)CC4)cc3)nc3ccsc23)c1 [OLMUTINIB]
PC-9 [1]
  inhibition of growth at 0.00037 µM: -3%
PC-9 [2]
  inhibition of growth at 0.01 µM: 69%
PC-9 [3]
  inhibition of growth at 0.00333 µM: 35%
PC-9 [4]
  inhibition of growth at 0.000123 µM: -3%
PC-9 [5]
  inhibition of growth at 0.00111 µM: 1%
